In publication PMC12867150, “A fungi-derived cyclic peptide enhances Th9-mediated antitumor immunity by targeting ZAP70 and SREBP1” (The Journal of Clinical Investigation, 2025):
Values joined by “and” are separate entries in the source; they are usually repeats but may differ in a detail not shown here. Identical values can stand only once.

Key:
[1] = test system: Th9 cells; assay: IL-9+ Th9 cells with MEK or ERK inhibition (Figure 5H); assay type: cell-based, mouse; conditions: for IL-9 (flow cytometric quantification): Figure 5H, individual replicates, (n = 5)
Protocol: (A) Identification and ranking of EpA-interacting proteins by affinity pulldown and LC-MS/MS, ordered by in silico binding energy predictions. […] (E) Flow-cytometric analysis of phosphorylated ZAP70 in Th9 cells 10 minutes after TCR activation (mean ± SEM, n = 3). (F) Pathway enrichment analysis of RNA-seq data showing MAPK/ERK-related pathways in EpA-treated Th9 cells. (G) Immunoblot analysis of total and phosphorylated MEK1/2 and ERK1/2 in control and EpA-treated Th9 cells. (H–L) Functional consequences of MEK or ERK inhibition in EpA-treated Th9 cells. […] Data in H–K are shown as mean ± SEM (n = 5) and in L as mean ± SEM (n = 3). Statistical significance was determined using 1-way ANOVA followed by Tukey’s test (E, H–L). *P < 0.05, **P < 0.01, ***P < 0.001, ****P < 0.0001.
T cell polarization was initiated under plate-bound anti-CD3 (2 μg/mL, clone 17A2, BioXCell, catalog BE0002) and soluble anti-CD28 (1 μg/mL, clone 37.51, BioXCell, catalog BE0015-1) stimulation, with the addition of cytokines and neutralizing antibodies specific to each subset. For Th9 cells, these included IL-4 (10 ng/mL, Peprotech, catalog 400-04), TGF-β (1 ng/mL, EPOTO Biotech, catalog HF-2021), anti–IL-12 (5 μg/mL, clone C17.8, BioXCell, catalog BE0051), and anti–IFN-γ (10 μg/mL, clone XMG1.2, BioXCell, catalog BE0055); for Th1 cells, these included IL-12 (10 ng/mL, GenScript, catalog Z03211-50) and anti–IL-4 (5 μg/mL, clone 11B11, BioXCell, catalog BE0045); for Th2 cells, these included IL-4 (50 ng/mL), anti–IFN-γ (20 μg /mL), anti–IL-12 (5 μg/mL), Th17 cells: IL-6 (20 ng/mL, EPOTO Biotech, catalog MF-1006), TGF-β (1 ng/mL), IL-1β (10 ng/mL, Peprotech, catalog AF-211-11B), anti–IFN-γ (10 μg/mL), anti–IL-12 (5 μg/mL), and anti–IL-4 (5 μg/mL); and for Tregs, these included TGF-β (3 ng/mL). After 3 days of initial culture, cells were either collected for downstream assays or continued in extended culture with refreshed cytokines to maintain lineage commitment.
The following pharmacological inhibitors were used at the indicated final concentrations: trametinib (MEK1/2 inhibitor; Selleck, catalog S4484) at 10 nM; temuterkib (ERK1/2 inhibitor; MCE, catalog HY-101494) at 100 nM; and fatostatin hydrobromide (SREBP inhibitor; MCE, catalog HY-14452A) at 5 μM. Dead cells were detected using Fixable Viability Dye eFluor 780 (eBioscience, catalog 65-0865).

[2] = test system: MEK1/2 and ERK1/2; assay: Immunoblot of total and phosphorylated MEK1/2 and ERK1/2 (Figure 5G); assay type: cell-based, mouse; conditions: result in words
Protocol: Detailed lysis conditions, SDS–PAGE and transfer procedures, primary/secondary antibodies (including clones and catalog numbers), molecular weight markers, ECL detection, and ImageJ (NIH) quantification are described in Supplemental Methods.
MH9A4, Biolegend, Cat. No. 507605, PE/Cy7, clone MH9A4, Biolegend, Cat. No. […]
clone Mab11, Biolegend, Cat. No. 502908), Perforin (APC, clone dG9, Biolegend, Cat.
Flow cytometric acquisition was performed using a BD Fortessa or Cytek Aurora cytometer. Data were analyzed with FlowJo software (v10.8.1 or newer). Fluorescence compensation, isotype-matched controls, and fluorescence-minus-one (FMO) controls were applied as appropriate for multicolor panel validation.
Cells were washed twice with PBS and lysed in 1 × lysis buffer (NCM, Cat. No.
WB3100) supplemented with a protease inhibitor cocktail (Solarbio, Cat. No. P1260).
Protein lysates were separated by SDS-polyacrylamide gel electrophoresis (SDS-PA G E ; YEASEN, Cat. No. 20325ES62) and transferred to PVDF membranes for […]
Membranes were probed with the following primary antibodies: ERK1/2 (clone […]
BioLegend, Cat. No. 369502), MEK1/2 (clone L38C12, Cell Signaling Technology, Cat.
No. 4694S), phospho -MEK1/2 (clone 41G9, Cell Signaling Technology, Cat. No. […]
(Proteintech, Cat. No. 10745 -1-AP), Total Akt (Cell Signaling Technolo gy, Cat. No. […]

[3] = test system: Raji lymphoma cells
Protocol: For infection, human T cells were activated for 40 hours with plate-bound anti-CD3 (BioLegend, clone OKT3, 5 μg/mL) and soluble anti-CD28 antibodies (BioLegend, clone CD28.2, 2 μg/mL) antibodies and then resuspended in viral supernatant (MOI = 5) supplemented with recombinant human IL-2 (100 U/mL) and polybrene (10 μg/mL). The cell-virus mixture was subjected to spinoculation at 550g for 2 hours at room temperature, followed by incubation for 24 hours. Transduced CAR T cells were harvested on days 5 or 7 after activation for downstream functional assays.
The cytotoxic activity of CD19-targeting CAR T cells was evaluated using a luciferase-based bioluminescence assay. Raji cells stably expressing firefly luciferase (ffLuc) were resuspended in RPMI 1640 medium supplemented with 10% FBS and seeded into 24-well plates. CAR T cells were added at various effector-to-target (E:T) ratios, while tumor-only wells were included as negative controls. After 20 hours of coculture, 20,000 cells from each tumor-only control well were harvested, washed with PBS, resuspended in 100 μL of lysis buffer, and transferred to a black 96-well plate. Luminescence intensity was measured using a multimode plate reader, and the percentage of specific lysis was calculated as follows: % Cytotoxicity = 1 – (luminescence of coculture well/luminescence of tumor-only control well).

For anteiso-C15 Leu7 surfactin [EpA], which “IL-9 (flow cytometric quantification)” value ([1]; EpA + ERKin combination) is on record?
Its value is 5.8 and 5.06 and 4.72 and 7.22 and 6.36.

And the “IL-9 (flow cytometric quantification)” value ([1]; EpA + MEKin combination)?
Its value is 0.49 and 3.03 and 0.46 and 0.71 and 0.77.

What about the “IL-9 (flow cytometric quantification)” value ([1]; single agent) of the same substance?
The value was 50.6 and 51.1 and 72.2 and 66.2 and 42.3.

What about the IL-9 production ([1]; trametinib 10 nM, temuterkib 100 nM, result in words) of the same substance?
The IL-9 production was “unable to restore it”.

And the “MEK and ERK phosphorylation” value [2]?
The value was “increased phosphorylation of MEK and ERK”.

And the “cytotoxicity against Raji cells” value [3]?
The value was “significantly greater cytotoxicity”.
